“And” between values parts separate entries of the source, which are not always exact repeats. Equal entries are not always repeated. Where two headings read alike, the source gives them in different places.
Experiments:
PD-L1 = target: T1, PD-L1 (Mus musculus, UniProt Q9EP73); assay: Rescue of PD-L1 mediated inhibition of proliferation, mouse splenocytes; type: cell-based; details: splenocyte-based assay
T1 construct: purchased R&D Systems 1019-B7-100
Description: (§1) The ability of peptides, peptidomimetics, and small molecules were analyzed for their ability to rescue T-cell proliferation or IFN-γ release from the inhibitory activity of PD-L1 or PD-L2 in a splenocyte/PBMC-based functional assay as per the protocols reported in publication. […] For all in vitro assays, test agent stock was prepared in water and diluted further in the assay media to achieve test concentrations. Each experimental condition was carried out in triplicates. Percent rescue for a given test compound concentration was calculated by normalizing individual percent test agent proliferation or IFN-γ release values to percent anti-CD3 and anti-CD28 antibodies stimulated proliferation or IFN-γ release. EC50 values were derived by plotting transformed data into non-linear fit in sigmoidal dose–response curve using GraphPad Prism software (Version 7).

PD-L2 = target: T2, PD-L2 (Homo sapiens, UniProt Q9BQ51); assay: Rescue of IFN-γ release inhibited by PD-L2, human PBMC; type: cell-based; details: for IFNγ Rescue (%): inhibited by PD-L2; for IFNγ Rescue (%) / IFN-γ: replicates; for IFN-γ: human PBMCs + anti-CD3/anti-CD28 + PD-L2 10 nM
T2 construct: purchased R&D systems 1224-PL-100
T2 sequence (Q9BQ51 with tags, fused parts or gaps limits assumed): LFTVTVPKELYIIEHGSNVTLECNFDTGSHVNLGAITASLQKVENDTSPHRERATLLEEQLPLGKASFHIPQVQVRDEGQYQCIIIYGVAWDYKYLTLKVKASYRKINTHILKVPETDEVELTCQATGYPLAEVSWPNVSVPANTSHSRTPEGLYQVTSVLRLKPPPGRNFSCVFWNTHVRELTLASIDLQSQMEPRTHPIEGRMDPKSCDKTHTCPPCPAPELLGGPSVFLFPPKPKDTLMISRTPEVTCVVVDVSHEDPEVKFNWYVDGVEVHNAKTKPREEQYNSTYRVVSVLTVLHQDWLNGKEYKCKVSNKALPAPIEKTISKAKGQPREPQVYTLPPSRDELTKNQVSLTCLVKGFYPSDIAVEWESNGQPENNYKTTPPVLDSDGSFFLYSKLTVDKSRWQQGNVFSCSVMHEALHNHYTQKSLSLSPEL
Description: as §1

Pharmacokinetics in mice = type: in vivo, mouse
Description: Animals in Group 1 were administered with 5% w/v dextrose in water and Group 2 were administered with corresponding formulation listed in the Supplementary Table 6 through oral routes. Blood samples (approximately 40 μl) were collected under light isoflurane anesthesia from submandibular at predose, 0.08 (IV), 0.25, 0.5, 1, 2, 4, 8, and 24 h using sparse sampling technique. Plasma samples were separated by centrifugation of whole blood and stored below −70 °C until bioanalysis. All samples were processed for analysis by protein precipitation and analyzed with fit-for-purpose LC–MS/MS method.

MC38 colon carcinoma = assay: Antitumor efficacy in MC38 syngeneic model (C57B6); type: in vivo, mouse; details: MC38 in C57B6 mice, day 14 of dosing
Description: For MC38 syngeneic colon carcinoma subcutaneous model, 0.5 × 10^6 MC38 cells (Source: NCI/NIH, kind gift from Dr. Michael Pollack) were injected subcutaneously to the left flank of the C57B6 mouse (In-house) or SCID Beige mice (Source: Harlan, France) on day 1 and dosing was initiated when average tumor volume reached ~100 mm^3. Animals were randomized based on tumor volumes and treated with either a vehicle control or CA-170 at indicated doses for 14 days. Anti-PD1 antibody (Clone J43 from BioXcel) was dosed intraperitoneally at 100 µg/animal once every week. Treatment efficacy was assessed in terms of the effects of the test substances on the tumor volumes of treated mice relative to vehicle-treated mice. Tumor growth curves of test and control groups using the mean tumor volumes were drawn, percent tumor growth inhibition (%TGI) […].

CT26 colon carcinoma = assay: CT26 model, combination with docetaxel; type: in vivo, mouse; details: for Individual tumor volumes: CA-170 alone, individual animals; for TGI: CT26 in Balb/c mice, 12 days
Description: Studies in syngeneic models including B16 melanoma metastasis model and CT26 colon carcinoma subcutaneous model were performed as described. For the Docetaxel combination experiment in CT26 model, indicated dosage of docetaxel (Source: Docetere® injection by Dr Reddy’s Laboratories) was dosed intraperitoneally to animals. For the CA-170 combination groups, CA-170 (10 mg/kg/day, oral) was dosed ~10 min after docetaxel. Animal grouping, treatment efficacy assessment and %TGI calculations were performed as mentioned above. For the CT26 experiment with cyclophosphamide, 100 mg/kg of cyclophosphamide was dosed once on day 5 intraperitoneally after cell implantation (first day of dosing for all other groups). Anti-PD1 antibody (Clone J43 from BioXcel) was dosed intraperitoneally at 100 µg/animal once every week.

Cl-Channel = assay: CEREP 80 panel binding: Cl-Channel; details: 10 µM
Description: (§2) CEREP 80 panel assay was carried out by Eurofins Cerep Panlabs facility at France. A series of binding assays was carried out to understand the off-target toxicity of CA-170. CA-170 was tested at 10 μM test concentration in duplicates. Compound binding was calculated as a % inhibition of the binding of a radioactively labeled ligand specific for each target. In each experiment the respective reference compound was tested concurrently with CA-170, and the data were compared with historical values determined at Eurofins. The experiment was accepted in accordance with Eurofins validation standard operating procedure. The results are expressed as a percent of control specific binding; (measured specific binding / control specific binding) × 100 and as a percent inhibition of control specific binding; 100−(measured specific binding / control specific binding) × 100 obtained in the presence of CA-170. The IC50 values (concentration causing a half-maximal inhibition of control specific binding) and Hill coefficients (nH) were determined by non-linear regression analysis of the competition curves generated with mean replicate values using Hill equation curve fitting.

Prostanoid EP4, IP, TP = assay: CEREP 80 panel binding: Prostanoid; details: 10 µM
Description: as §2

Bombesin BB = assay: CEREP 80 panel binding: Bombesin; details: 10 µM
Description: as §2

DOP, KOP, MOP, NOP = assay: CEREP 80 panel binding: Opioid & Opioid like; details: 10 µM
Description: as §2

[1] = test system: Amine transporters DA, NE, 5HT; assay: CEREP 80 panel binding: Amine transporters; details: 10 µM
Description: as §2

[2] = test system: Classical Hodgkin lymphoma; parameters: method as in doi:10.1093/annonc/mdz253.035; details: Phase 2, Lugano criteria; cited from earlier work

T1 sequence (Q9EP73 with tags, fused parts or gaps limits assumed): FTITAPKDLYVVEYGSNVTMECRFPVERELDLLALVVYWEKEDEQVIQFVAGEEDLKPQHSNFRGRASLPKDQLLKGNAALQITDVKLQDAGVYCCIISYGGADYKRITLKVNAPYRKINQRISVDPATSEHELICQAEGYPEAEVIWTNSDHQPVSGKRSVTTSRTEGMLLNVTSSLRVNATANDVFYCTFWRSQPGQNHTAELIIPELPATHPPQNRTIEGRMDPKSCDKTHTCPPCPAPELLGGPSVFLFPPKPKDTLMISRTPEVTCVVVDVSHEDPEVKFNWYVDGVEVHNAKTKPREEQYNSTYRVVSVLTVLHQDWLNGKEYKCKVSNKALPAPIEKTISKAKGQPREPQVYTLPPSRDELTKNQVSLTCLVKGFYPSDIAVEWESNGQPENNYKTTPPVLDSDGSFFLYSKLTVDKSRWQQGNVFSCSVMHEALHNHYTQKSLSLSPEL
Description for Plasma stability, human: (§3) Test compounds were tested for plasma stability (test concentration of 10 μM) as per the protocols reported in publication[20].
Description for Plasma stability, rat: as §3

C[C@@H](O)[C@H](NC(=O)N[C@@H](CC(N)=O)c1nc([C@@H](N)CO)no1)C(=O)O [CA-170]
EC50 (PD-L1): 15.4 ± 1.3 nM
IFNγ Rescue (%) (PD-L2; 1.95 nM): -64.52% and -5.10% and -5.67%
IFNγ Rescue (%) (PD-L2; 3.91 nM): -3.89% and -4.90% and -5.25%
IFNγ Rescue (%) (PD-L2; 7.81 nM): -1.08% and -2.04% and -2.73%
IFNγ Rescue (%) (PD-L2; 15.63 nM): 4.10% and 2.24% and 2.52%
IFN-γ (PD-L2; 31.25 nM): 66.5 pg/mL and 74 pg/mL and 64 pg/mL
IFNγ Rescue (%) (PD-L2; 31.25 nM): 4.10% and 2.86% and 1.89%
IFNγ Rescue (%) (PD-L2; 62.50 nM): 39.96% and 36.33% and 35.71%
IFNγ Rescue (%) (PD-L2; 250.00 nM): 74.73% and 74.90% and 79.20%
IFN-γ (PD-L2; 500 nM): 869 pg/mL and 984 pg/mL and 1059 pg/mL
IFNγ Rescue (%) (PD-L2; 500.00 nM): 73.43% and 77.14% and 85.50%
rescue of IFNγ release inhibited by recombinant PD-L2 (in words) (PD-L2; human PBMCs stimulated with anti-CD3 and anti-CD28): rescued IFNγ release
EC50 (PD-L2; mean ± S.D., n=3): 80.9 nM
AUC (Pharmacokinetics in mice; male, CD-1, mouse, plasma, mice, intravenous 1 mg kg−1, read-out: Mice PK parameters AUCi iv(0-α)): 4200 ng·h/mL
clearance (Pharmacokinetics in mice; male, CD-1, mouse, plasma, mice, intravenous 1 mg kg−1, read-out: Mice PK parameters Clearance (converted)): 12.1 mL/min/kg
bioavailability (Pharmacokinetics in mice; male, CD-1, mouse, plasma, mice, iv 1 mg kg−1, oral 30 mg kg−1, read-out: Mice PK parameters % F): 50%
AUC (Pharmacokinetics in mice; male, CD-1, mouse, plasma, mice, oral 30 mg kg−1, read-out: Mice PK parameters AUC po (0-α)): 19600 ng·h/mL
Cmax (Pharmacokinetics in mice; male, CD-1, mouse, plasma, mice, oral 30 mg kg−1, read-out: Mice PK parameters Cmax): 1720 ng/mL
half-life (Pharmacokinetics in mice; male, CD-1, mouse, plasma, preclinical PK exposure): 3.4 h
oral bioavailability (in words) (Pharmacokinetics in mice; mouse, in vivo, po): good oral bioavailability
Individual tumor volumes (MC38 colon carcinoma; CA-170 10 mg/kg PO daily, J43 100 µg/animal/week, 10 mg/kg): 391.77 mm3 and 388.53 mm3 and 554.94 mm3 and 536.22 mm3 and 252.8 mm3 and 593.87 mm3 and 294.73 mm3 and 377.95 mm3 and 460.46 mm3 and 205.38 mm3
tumor growth inhibition (MC38 colon carcinoma; CA-170 10 mg/kg/day orally, PD-1 antibody 100 µg/animal/week): 43%
Individual tumor volumes (CT26 colon carcinoma; day 1 of treatment): 20.16 mm3 and 32.48 mm3 and 34.58 mm3 and 45.49 mm3 and 48.25 mm3 and 58.95 mm3 and 62 mm3 and 77.12 mm3 and 87.62 mm3
Individual tumor volumes (CT26 colon carcinoma; day 4 of treatment): 46.73 mm3 and 66.38 mm3 and 43.09 mm3 and 70.24 mm3 and 54.41 mm3 and 118.43 mm3 and 93.26 mm3 and 105.24 mm3 and 188.91 mm3
Individual tumor volumes (CT26 colon carcinoma; day 6 of treatment): 73.66 mm3 and 96.49 mm3 and 125.38 mm3 and 93.3 mm3 and 88 mm3 and 204.79 mm3 and 132.26 mm3 and 118.36 mm3 and 317.89 mm3
Individual tumor volumes (CT26 colon carcinoma; day 8 of treatment): 84.62 mm3 and 174.68 mm3 and 185.55 mm3 and 147.74 mm3 and 147.76 mm3 and 334.98 mm3 and 214.88 mm3 and 178.28 mm3 and 601.81 mm3
Individual tumor volumes (CT26 colon carcinoma; day 11 of treatment): 209.65 mm3 and 360.36 mm3 and 315.63 mm3 and 279.2 mm3 and 265.42 mm3 and 706.83 mm3 and 356.89 mm3 and 376.42 mm3 and 728.46 mm3
TGI (CT26 colon carcinoma; CA-170 10 mg/kg/day single agent): 43%
TGI (CT26 colon carcinoma; combination CA-170 10 mg/kg and docetaxel 10 mg/kg): 68%
% Inhibition of Control Specific Binding (Cl-Channel): 2%
% Inhibition of Control Specific Binding (Prostanoid EP4, IP, TP): ≤ 5%
% Inhibition of Control Specific Binding (Bombesin BB): < 0%
% Inhibition of Control Specific Binding (DOP, KOP, MOP, NOP): ≤ 9%
% Inhibition of Control Specific Binding [1]: ≤ 1%
ORR [2]: 30%
remaining at 4 h, 10 μM (Plasma stability, rat): > 95%
remaining at 4 h, 10 μM (Plasma stability, human): > 95%
